Data set [1] deals with S. aureus. Details: method as in previously reported S. aureus sensitive PET tracers. Conditions: S. aureus infection; ref previously reported S. aureus sensitive PET tracers; cited from earlier work.
The test system of data set [2] is K. pneumoniae. The data set is described as follows: In vitro uptake of 18F-tracers by bacteria. The data set is classed as cell-based, Klebsiella pneumoniae. How it is done:
(§1) In vitro evaluation of ^18F-tracers was conducted according to our established procedure. Briefly, bacteria were incubated overnight at 37 °C, subcultured into a fresh medium at an initial OD600 of 0.05, and then allowed to reach the mid log phase (OD600 ∼ 0.4). The cultures were subsequently incubated with ^18F-tracers (final concentration: 0.1 MBq/mL) at 37 °C for 90 min. Subsequently, 300 μL aliquots of these cultures were centrifuged at 13,200 rpm for 6 min. The resulting pellets were washed with 300 μL of phosphate-buffered saline (PBS). The radioactivity of the pellets and supernatants was measured using a gamma counter. Uptake values were normalized to colony-forming units (CFUs).

For data set [3], the system named is Gram-positive bacteria. The data set is described as follows: In vitro uptake of 18F-tracers across the Gram-positive panel. The data set is classed as cell-based. Conditions: panel of Gram-positive pathogens; FLT/FCT except E. faecalis; FMT versus FNT. The method, then: as §1
For data set [4] the following is noted: in vivo; cited from earlier work.
For data set [5], the system named is Enterococcus faecalis. The data set is described as follows: In vitro uptake of 18F-tracers by bacteria. The class given is cell-based. Conditions: E. faecalis; 37 °C, 90 min. How it is done:
as §1

The subject of data set [6] is K. pneumoniae. The data set is described as follows: PET/CT in K. pneumoniae pneumonia murine model. The class given is in vivo, mice. How it is done:
Given promising low background signals in uninfected mice, we further evaluated [^18F]-FNT and [^18F]-FMT in two different clinically relevant mouse models of lung and muscle infections. […] PET scanning was performed at 24 h postintranasal bacterial installation (Figure A). […] The ROI-derived infected/uninfected lung ratios of [^18F]-FDS, [^18F]-FMT, and [^18F]-FNT were approximately 3.2, 6.1, and 5.9-fold, respectively (Figure C), also supported by the ex vivo infected/uninfected lung ratio of [^18F]-FDS (∼1.6-fold), [^18F]-FMT (∼5.7-fold), and [^18F]-FNT (∼5.7-fold) (Figure D). Post-PET scans, infected lungs were harvested to determine colony forming units (CFUs). No significant differences in bacterial counts were observed among [^18F]-FDS, [^18F]-FMT, and [^18F]-FNT (Figure E). To confirm radiotracer specificity, we also evaluated mice inoculated with 10x heat-killed K. pneumoniae into lungs (Supporting Information Figure S5A–C).
(§2) All animal procedures were conducted in accordance with UCSF institutional guidelines and were approved by the Institutional Animal Care and Use Committee (IACUC). Female CBA/J mice (9 and 11 weeks old) were used for the study. Pulmonary infection and bacterial myositis models were established based on previously published protocols. , For pulmonary infection, 50 μL of K. pneumoniae (5 × 10^6 CFU) or 10× heat-killed K. pneumoniae were administered intranasally under anesthesia 24 h prior to imaging using PET. After PET scans, infected lungs were homogenized in PBS and plated on LB agar. Plates were incubated overnight at 37 °C to quantify the bacterial burden. For the bacterial myositis model, mice were intramuscularly injected with either 1 × 10^6 CFUs of live S. aureus (MSSA or MRSA) or 1 × 10^7 CFUs of heat-killed bacteria (50 μL) into the left and right deltoid muscles, respectively, 10 h prior to imaging using PET. Immediately following all imaging studies, target tissues were harvested, and radioactivity was measured using a gamma counter.
μPET/CT imaging was conducted using a nanoScan μPET/CT instrument (PET123S/CT1512, Mediso). Mice were anesthetized with 2% isoflurane/oxygen for intravenous administration of ^18F-tracers (∼5 MBq in 150 μL) via tail vein and maintained during data acquisition. PET data of uninfected mice were acquired in the list mode for 90 min, starting immediately after ^18F-tracer administration, followed by a CT scan. The PET data were reconstructed into three-dimensional volumes and coregistered with CT images using manufacturer-provided software in 53 dynamic frames (15 × 2 s, 6 × 5 s, 6 × 10 s, 4 × 30 s, 6 × 30 s, and 16 × 300 s). PET data of infected mice were acquired for 20 min, starting at 70 min postinjection of ^18F-tracer (mid time 80 min), followed by a CT scan. The list mode PET data were reconstructed into three-dimensional volumes in a single static frame. All PET scans were corrected for ^18F decay, dead time, and random coincidences and reconstructed into a 160 × 160 × 184 matrix with voxel size 0.8 mm using a three-dimensional ordered subject expectation maximization (OSEM) algorithm (40 iterations, 1 subset). Both attenuation and scatter corrections were applied to PET reconstructions using the coregistered CT. ROIs were drawn manually around the brain, lungs, liver, kidney, and urinary bladder using Amide software to generate image-derived TACs. For the estimation of blood pool radioactivity over time, ROIs were drawn on the left atrium. To estimate the plasma half-life of tracers, the TAC of the blood pool was fitted to a two-compartment model using a biexponential decay function: C t(t) = Ae ^–αt + Be ^ ‑βt , where C t(t) is the tracer concentration (% IDcc^–1) at time (t), A and B are the intercepts, and α and β are the distribution and elimination rate constants, respectively. , Quantitative uptake values are expressed as % IDcc^–1, representing the percent of the total injected dose per cubic centimeter. […]

The nature of data set [7]: Dynamic PET/CT and ex vivo biodistribution in uninfected mice. As to conditions: uninfected mice. The method, then: To assess the effect of [^18F]-FDS glycosylation on tissue uptake in vivo, we performed dynamic PET/CT scans for 90 min after the intravenous injection of [^18F]-FNT, [^18F]-FMT, and [^18F]-FDS in uninfected mice, followed by ex vivo analysis.
(§3) μPET/CT imaging was conducted using a nanoScan μPET/CT instrument (PET123S/CT1512, Mediso). Mice were anesthetized with 2% isoflurane/oxygen for intravenous administration of ^18F-tracers (∼5 MBq in 150 μL) via tail vein and maintained during data acquisition. PET data of uninfected mice were acquired in the list mode for 90 min, starting immediately after ^18F-tracer administration, followed by a CT scan. The PET data were reconstructed into three-dimensional volumes and coregistered with CT images using manufacturer-provided software in 53 dynamic frames (15 × 2 s, 6 × 5 s, 6 × 10 s, 4 × 30 s, 6 × 30 s, and 16 × 300 s). PET data of infected mice were acquired for 20 min, starting at 70 min postinjection of ^18F-tracer (mid time 80 min), followed by a CT scan. The list mode PET data were reconstructed into three-dimensional volumes in a single static frame. All PET scans were corrected for ^18F decay, dead time, and random coincidences and reconstructed into a 160 × 160 × 184 matrix with voxel size 0.8 mm using a three-dimensional ordered subject expectation maximization (OSEM) algorithm (40 iterations, 1 subset). Both attenuation and scatter corrections were applied to PET reconstructions using the coregistered CT. ROIs were drawn manually around the brain, lungs, liver, kidney, and urinary bladder using Amide software to generate image-derived TACs. For the estimation of blood pool radioactivity over time, ROIs were drawn on the left atrium. To estimate the plasma half-life of tracers, the TAC of the blood pool was fitted to a two-compartment model using a biexponential decay function: C t(t) = Ae ^–αt + Be ^ ‑βt , where C t(t) is the tracer concentration (% IDcc^–1) at time (t), A and B are the intercepts, and α and β are the distribution and elimination rate constants, respectively. , Quantitative uptake values are expressed as % IDcc^–1, representing the percent of the total injected dose per cubic centimeter. For the S. aureus myositis model, identical volume ROIs were drawn corresponding to the peak uptake of [^18F]-FNT at the live S. aureus inoculated site and heat-killed S. aureus inoculated site, respectively.

Data set [8] relates to MRSA. The data set is described as follows: PET/CT in MRSA myositis murine model. Conditions: MRSA myositis. The class given is in vivo, mice. The method, then:
We next compared [^18F]-FNT and [^18F]-FMT PET in a S. aureus myositis model. […] To compare the in vivo detection sensitivity of [^18F]-FNT and [^18F]-FMT in a MRSA myositis model, we injected the left deltoid with live MRSA and the right deltoid with 10x heat-killed MRSA, respectively (Figure B).
as §2, with “For the bacterial myositis model, mice were intramuscularly injected with either 1 × 10^6 CFUs of live S. aureus (MSSA or MRSA) or 1 × 10^7 CFUs of heat-killed bacteria (50 μL) into the left and right deltoid muscles, respectively, 10 h prior to imaging using PET.” left out
as §3

[9] abbreviates: blood pool TAC, two-compartment fit.

The values below come from PMC12728616, “Regioselective Glycosylation of Fluorine-18-Labeled Sorbitol for Enhanced Bacterial Detection In Vivo Using PET” (JACS Au, 2025).

SMILES strings stand for the structures.

As to `Nc1ccc(C(=O)O)c([18F])c1` [2-[18F]F-PABA], the target-to-nontarget ratio in data set [1] is given as about 8 fold.

In the case of `[11CH3][C@@H](N)C(=O)O` [D-[3-11C]Ala], the target-to-nontarget ratio in data set [1] is about 4 fold. Regarding `N[C@H](CC[11C](N)=O)C(=O)O` [D-[5-11C]-Gln], the target-to-nontarget ratio in data set [1] is given as about 2.3 fold.

In the case of `[11CH3]SCC[C@@H](N)C(=O)O` [D-[11C]Met], the target-to-nontarget ratio in data set [1] was about 10 fold. For `[2H]C([2H])([18F])[C@@]([2H])(N)C(=O)O` [D-[18F]FAla-d3], the target-to-nontarget ratio in data set [1] was about 2.4 fold.

Consider `N[C@H](C[18F])C(=O)O` [D-[18F]FAla], for which the target-to-nontarget ratio in data set [1] is given as about 2 fold.

Take `Nc1ccc([11C](=O)O)cc1` [[11C]PABA]: the target-to-nontarget ratio in data set [1] is given as about 28 fold.

Take `OC[C@@H](O)[C@@H](O[C@@H]1O[C@H](CO)[C@@H](O)[C@H](O)[C@H]1O)[C@H](O)[C@@H]([18F])CO` [[18F]FCT, 2-deoxy-2-[18F]fluoro-D-cellobiotol]: in data set [2], the in vitro uptake entry was “poorly taken up”. The “in vitro uptake in Gram-positive bacteria” value in data set [3] was “negligible uptake”.

Turning to `OC[C@H]1OC(O)[C@H]([18F])[C@@H](O)[C@@H]1O` (stereo partly drawn) [[18F]FDG], the known effective dose in data set [4] is recorded as 0.017 mSv/MBq. Regarding `OCC1OC(OC2C(CO)OC(O)C([18F])C2O)C(O)C(O)C1O` (stereo not drawn) [[18F]FDM], the target-to-nontarget ratio in data set [1] is on record as about 6 fold. As to `OC[C@@H](O)[C@@H](O)[C@H](O)[C@@H]([18F])CO` [[18F]FDS, 2-deoxy-2-[18F]fluoro-D-sorbitol, reference compound], the in vitro uptake result in data set [5] is “accumulated”. In data set [3], the “in vitro uptake in Gram-positive bacteria” value is “not taken up”. Moreover, in data set [6] (ex vivo gamma counting after PET), the “ex vivo infected/uninfected lung ratio” value was about 1.6 fold. Also, the “ROI-derived infected/uninfected lung ratio” value in data set [6] (in vivo PET, 80 min postinjection (mid time), 24 h after intranasal K. pneumoniae) was “approximately 3.2 fold”. In data set [7] (i.v.), the “area under the curve (AUC0→90min) in bladder” value was found to be 36165.8 ± 3961.5 % IDcc^–1·min and the “area under the curve (AUC0→90min) in liver” value came out at 289.4 ± 21.3 % IDcc^–1·min. Moreover, in data set [7] (i.v., dynamic PET 90 min), the “peak uptake (Cmax) in bladder” value was determined as 525.5 ± 37.0 % IDcc^–1, the “peak uptake (Cmax) in kidneys” value came to 71.3 ± 9.7 % IDcc^–1 and the “peak uptake (Cmax) in liver” value is 28.6 ± 5.0 % IDcc^–1. Also, in data set [7] (setting [9]), the “elimination half-life (T1/2β)” value stood at 18.74 min and the “plasma distribution half-life (T1/2α)” value turned out to be 0.43 min. As to `OC[C@@H](O)[C@@H](O)[C@H](O)[C@H]([18F])CO` [[18F]FMtl], the target-to-nontarget ratio in data set [1] was about 4 fold.

In the case of `OCC1OC(OC2C(O)C(CO)OC(O)C2[18F])C(O)C(O)C1O` (stereo not drawn) [[18F]FSK, reference compound], in data set [8] (PET 80 min postinjection (mid time)), the “ratio of live/heat-killed S. aureus inoculated sites, in vivo” value amounted to 28 fold. Also, in data set [8] (ex vivo analysis), the “ratio of live/heat-killed S. aureus inoculated sites, ex vivo” value is listed as 17 fold. Further, the target-to-nontarget ratio in data set [1] is on record as about 7 fold. On to `OCCOCc1ccc(-c2noc(-c3ccc(OCC[18F])c(C(F)(F)F)c3)n2)cc1` [[18F]TZ4877], for which the target-to-nontarget ratio in data set [1] was about 1.3 fold.
